These results are taken from patent US11452718B2 (AVALYN PHARMA INC., priority 2012, dated 2022).

Data set [1] can be described thus: Pharmacokinetics and tissue distribution (lung, plasma, heart, kidney) of co-solvent formulations, bolus intratracheal aerosol. Format: in vivo, Sprague-Dawley rats. The settings on record: for Analyte in lung tissue, Mean: about 4 mg/kg pirfenidone IT bolus aerosol. On the procedure: Selected formulations were prepared for pharmacokinetic analysis following aerosol delivery to rat lung. […] Formulations prepared for this study are outlined in Table 9. […] The sample was agitated until completely dissolved. […] Filtered samples were analyzed by HPLC.

The conditions of data set [2]: in vivo; cited from earlier work.
A further data set has as its system cancer patients. To be noted: cited from earlier work.
The subject of data set [3] is relapsed/refractory multiple myeloma. The settings on record: cited from earlier work.
The next data set relates to PI3K. To be noted: cited from earlier work.
For a further data set, the target named is mTOR (Homo sapiens, UniProt P42345). To be noted: cited from earlier work.
The next data set deals with breast cancer stem cells. To be noted: mouse, in vivo; cited from earlier work.
The subject of another data set is p110-γ and p110-δ. The settings on record: versus the other isoforms; cited from earlier work.
The subject of data set [4] is EGFR mutation positive patients. To be noted: cited from earlier work.
In data set [5] the test system is sol elastase activity of CF sputum. The settings on record: direct treatment of unprocessed CF sputum; cited from earlier work.

For the molecule `O=C(O)c1ccc(=O)n(-c2ccccc2)c1`, the “Analyte in lung tissue, Mean” value worked out at 0.00 μg/gram in [1] (0 MIN); 0.12 μg/gram in [1] (Group 1, 0.0333 hr); 0.13 μg/gram in data set [1] (Group 1, 0.0667 hr); 0.48 μg/gram in [1] (Group 1, 0.1 hr); 0.49 μg/gram in [1] (Group 1, 0.167 hr); 0.96 μg/gram in data set [1] (Group 1, 0.333 hr). The “Analyte in lung tissue, Mean” value in data set [1] (Group 1, 0.667 hr) is reported as 0.96 μg/gram; in data set [1] (Group 1, 1 hr) it was 0.73 μg/gram; in data set [1] (Group 1, 2 hr) it was 0.21 μg/gram; in data set [1] (Group 1, 2.5 hr), 0.10 μg/gram; in data set [1] (Group 1, […]), 0.48 μg/gram; in data set [1] (Group 3, 0.0333 hr), 0.05 μg/gram. For the same molecule, the “Analyte in lung tissue, Mean” value in data set [1] (Group 3, 0.0667 hr) is on record as 0.36 μg/gram; in data set [1] (Group 3, 0.1 hr), 0.55 μg/gram; in [1] (Group 3, 0.167 hr), 0.86 μg/gram; in [1] (Group 3, 0.333 hr) it was 1.09 μg/gram; in [1] (Group 3, 0.667 hr) it was 0.81 μg/gram; in data set [1] (Group 3, 1 hr), 0.70 μg/gram. In addition, the “Analyte in lung tissue, Mean” value in [1] (Group 3, 2 hr) amounted to 0.32 μg/gram; in data set [1] (Group 3, 2.5 hr), 0.14 μg/gram; in data set [1] (Group 3, […]), 0.52 μg/gram; in data set [1] (Group 5, 0.0333 hr), 0.17 μg/gram; in data set [1] (Group 5, 0.0667 hr), 0.42 μg/gram; in [1] (Group 5, 0.1 hr), 0.35 μg/gram. The “Analyte in lung tissue, Mean” value in data set [1] (Group 5, 0.167 hr) is 0.53 μg/gram; in [1] (Group 5, 0.333 hr), 1.32 μg/gram; in [1] (Group 5, 0.667 hr) it was 0.96 μg/gram; in data set [1] (Group 5, 1 hr) it was 0.75 μg/gram; in data set [1] (Group 5, 2 hr), 0.18 μg/gram; in [1] (Group 5, 2.5 hr), 0.10 μg/gram. Besides, the “Analyte in lung tissue, Mean” value in [1] (Group 5, […]) was determined as 0.45 μg/gram; in [1] (Group 6, 0.0333 hr), 0.17 μg/gram; in data set [1] (Group 6, 0.0667 hr), 0.43 μg/gram; in data set [1] (Group 6, 0.1 hr), 0.37 μg/gram; in [1] (Group 6, 0.167 hr) it was 0.64 μg/gram; in data set [1] (Group 6, 0.333 hr) it was 0.94 μg/gram. Further, the “Analyte in lung tissue, Mean” value was 0.92 μg/gram in data set [1] (Group 6, 0.667 hr); 0.78 μg/gram in [1] (Group 6, 1 hr); 0.24 μg/gram in data set [1] (Group 6, 2 hr); 0.14 μg/gram in data set [1] (Group 6, 2.5 hr); 0.43 μg/gram in [1] (Group 6, […]).
As to `O=C(O)c1ccc(=O)n(-c2ccccc2)c1` [5-carboxy-pirfenidone], the “appearance of metabolite after direct aerosol administration to the lung” value in data set [1] (primary pirfenidone liver metabolite) was “delayed appearance”. The “share of urinary excretion being the primary metabolite” value in [2] is listed as 95%.
Regarding `N#CC1(c2ccc(NC(=O)c3cccnc3NCc3ccncc3)cc2)CCCC1` [Apatinib], in the data set with cancer patients (1000 mg/day), the dose limiting toxicities is on record as 3 of 3. In the data set with cancer patients (65 cancer patients, Phase I/II), the complete response is 1.54%, the partial response is on record as 12.31%, the progressive disease was 20% and the stable disease was 66.15%. Besides, the well tolerated dose result in the data set on cancer patients (daily for 28 days) is on record as “below 750 mg/day”. Besides, in the data set on cancer patients (human, in vivo), the maximum tolerated dose is recorded as 850 mg/day.
For `CC(C)C[C@H](NC(=O)[C@H](Cc1ccccc1)NC(=O)c1cnccn1)B(O)O` [Bortezomib], the “patients with peripheral neuropathy” value in data set [3] (human, in vivo) is given as 30%. The “time to peak concentrations” value in data set [3] (intravenous administration) is “about 30 minutes”.
A word on the IC50: it is the concentration that inhibits the measured activity by half. Turning to `CS(=O)(=O)N1CCN(Cc2cc3nc(-c4cccc5[nH]ncc45)nc(N4CCOCC4)c3s2)CC1` [GDC-0941], the IC50 with PI3K was […].
In the case of `Cc1c(CN2CCN(S(C)(=O)=O)CC2)sc2c(N3CCOCC3)nc(-c3cnc(N)nc3)nc12` [GNE-477], the IC50 on mTOR was 21 nM.
As to `CC[C@@H](C(=O)[C@@H](C)[C@@H](O)[C@H](C)[C@@H]1O[C@@H]([C@@H](CC)C(=O)O)CC[C@@H]1C)[C@H]1O[C@]2(C=C[C@@H](O)[C@]3(CC[C@@](C)([C@H]4CC[C@](O)(CC)[C@H](C)O4)O3)O2)[C@H](C)C[C@@H]1C` [Salinomycin], in the data set on breast cancer stem cells, the “effectiveness relative to paclitaxel” value is “at least 100 times”.
Turning to `Nc1nc(N)c2nc(-c3cccc(O)c3)c(-c3cccc(O)c3)nc2n1` [TG100-115], in the data set on p110-γ and p110-δ, the “better potency against p110-γ and p110-δ” value is given as 5-10 fold.
As to `C#Cc1cccc(Nc2ncnc3cc(OCCOC)c(OCCOC)cc23)c1` [erlotinib], the response rate entry in data set [4] (EGFR mutation positive patients) is reported as “approximately 60%”. Besides, the “time to development of resistance from the start of treatment” value in [4] (human, in vivo) was 8-12 months.
With DNase, the “increase of elastase activity” value in data set [5] is 190%.

B1: reduced rhTrx: stable reduced form of recombinant human thioredoxin (protein, UniProt P10599 2-105, looked up)
Thioredoxin: VKQIESKTAFQEALDAAGDKLVVVDFSATWCGPCKMIKPFFHSLSEKYSNVIFLEVDVDDCQDVASECEVKCMPTFQFFKKGQKVGEFSGANKEKLEATINELV
modifications: reduced form
For B1, the “increase of elastase activity” value in [5] is listed as 60%.
